Some test systems named below: SK-MEL-2 melanoma; CAKI-1 renal; NCI-H226 lung; UACC-257 melanoma; NCI-H23 lung; OVCAR-8 ovarian; SF-295 CNS; HOP-92 NSCLC; HOP-62 NSCLC; NCI/ADR-RES ovarian.
Common to all, as to test: inhibition of tumour cell growth, NCI panel, 48 h

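Results reflect a 48-hour exposure of cells in 96-well plates to compound at five concentrations. GI50 is the concentration that inhibits growth by half. TGI is the concentration that stops growth completely.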 Bounds are passed on as bounds.

For the molecule `COC(=O)C(=O)C(C(=O)C(=O)Nc1ccccc1C(N)=O)c1nc2ccc(C(=O)c3ccccc3)cc2[nH]c1=O` (stereo unspecified), the TGI in the assay on SK-MEL-2 melanoma, in the assay with CAKI-1 renal, in the assay on NCI-H226 lung, with UACC-257 melanoma, in the assay on NCI-H23 lung and with OVCAR-8 ovarian was above 100 µM in each case. The molecule also registered a TGI in the assay on SF-295 CNS above 100 µM.
On to `O=C1c2cccc3cccc(c23)C(=O)N1CCCN1CCN(CCCN2C(=O)c3cccc4cccc(c34)C2=O)CC1`, for which the TGI in the assay with SK-MEL-2 melanoma, in the assay with CAKI-1 renal, in the assay on HOP-92 NSCLC, in the assay on NCI-H226 lung, with UACC-257 melanoma and in the assay with NCI-H23 lung was above 100 µM in each case. Also, the TGI with HOP-62 NSCLC, with OVCAR-8 ovarian and in the assay with SF-295 CNS was above 100 µM throughout.
As for `COc1cc(CC(=O)c2ccc3c(c2)OCO3)cc(OC)c1OC`, the TGI in the assay on SK-MEL-2 melanoma, in the assay on CAKI-1 renal, in the assay on HOP-92 NSCLC, with NCI-H226 lung, with UACC-257 melanoma and in the assay with NCI-H23 lung was above 100 µM throughout. The TGI in the assay on HOP-62 NSCLC, in the assay on OVCAR-8 ovarian and with SF-295 CNS was above 100 µM each time.
Regarding `COc1ccc(-n2nc(C)c3c2N(C)C2(C)C[C@@H]4C3(C)[C@@H]3CC4(C2)N(C)c2c(c(C)nn2-c2ccc(OC)cc2)[C@H]3C)cc1` (stereo partly specified), the GI50 in the assay on SK-MEL-2 melanoma is 7.29 µM; in the assay with NCI/ADR-RES ovarian it was 8.03 µM; with NCI-H226 lung, 5.34 µM; with NCI-H23 lung it was 18.7 µM; with HOP-62 NSCLC it was 3.1 µM; with OVCAR-8 ovarian, 4.19 µM. Moreover, the TGI was 23.3 µM in the assay with SK-MEL-2 melanoma; above 100 µM with NCI/ADR-RES ovarian; above 100 µM in the assay on NCI-H226 lung; 99.9 µM with NCI-H23 lung; 10.5 µM with HOP-62 NSCLC; 92.7 µM in the assay on OVCAR-8 ovarian.
As for `COC(=O)C1CCC(=NC2c3ccccc3-c3ccccc32)N1` (stereo unspecified), the TGI is above 100 µM in the assay with SK-MEL-2 melanoma; above 100 µM in the assay on CAKI-1 renal; 76.6 µM in the assay with HOP-92 NSCLC; above 100 µM in the assay on NCI-H226 lung; above 100 µM in the assay with UACC-257 melanoma; above 100 µM in the assay on NCI-H23 lung. Further, the TGI in the assay with HOP-62 NSCLC, with OVCAR-8 ovarian and in the assay with SF-295 CNS was above 100 µM throughout.
As to `O=C(OCc1nc2ccc(Br)cc2c(=O)n1-c1ccccc1)c1ccccc1O`, the TGI with SK-MEL-2 melanoma, in the assay with CAKI-1 renal, in the assay on HOP-92 NSCLC, with NCI-H226 lung, with UACC-257 melanoma and in the assay on NCI-H23 lung was above 100 µM each time. Further, the TGI in the assay with HOP-62 NSCLC, in the assay on OVCAR-8 ovarian and with SF-295 CNS was above 100 µM throughout.
`Cc1cccc(CC(C)(C)C)c1NC(=O)C(=O)C(C(=O)c1ccc2ccccc2c1)C1OC(=O)c2ccccc21` (stereo unspecified): the TGI with SK-MEL-2 melanoma is 34.2 µM; in the assay on CAKI-1 renal, above 100 µM; in the assay on HOP-92 NSCLC, 8.54 µM; with NCI-H226 lung, 7.12 µM; in the assay with UACC-257 melanoma, 26.2 µM; in the assay on NCI-H23 lung, 19.2 µM. In addition, the TGI in the assay on HOP-62 NSCLC is 43.2 µM; in the assay with SF-295 CNS it was 21.6 µM.
For the molecule `Cc1[nH]c(=O)nc(N/N=C/c2ccc(O)cc2)c1C(=O)Nc1ccc(Cl)cc1`, the TGI with SK-MEL-2 melanoma, in the assay with CAKI-1 renal, in the assay on NCI-H226 lung, in the assay on UACC-257 melanoma, in the assay with HOP-62 NSCLC and in the assay with OVCAR-8 ovarian was above 100 µM each time.
As to `Cc1c(-c2coc(-c3ccc(Cl)cc3)n2)c(=O)n(-c2ccccc2)n1C`, the TGI with SK-MEL-2 melanoma, in the assay on HOP-92 NSCLC, in the assay with NCI-H226 lung, with UACC-257 melanoma, with NCI-H23 lung and in the assay on HOP-62 NSCLC was above 100 µM throughout. The TGI with OVCAR-8 ovarian and in the assay with SF-295 CNS was above 100 µM each time.
For the molecule `CC1SC2(CCCCC2)N(NC(=O)c2[nH]c3ccc(F)cc3c2-c2ccccc2)C1=O` (stereo unspecified), the GI50 in the assay with SK-MEL-2 melanoma is 76.2 µM; with CAKI-1 renal, above 100 µM; with HOP-92 NSCLC it was 16.9 µM; in the assay with NCI-H226 lung, above 100 µM; in the assay with UACC-257 melanoma, 90.9 µM; in the assay on NCI-H23 lung it was above 100 µM. Further, the GI50 in the assay on HOP-62 NSCLC is 19.7 µM; with OVCAR-8 ovarian, 23.1 µM; in the assay on SF-295 CNS it was 35.8 µM. Besides, the TGI was above 100 µM with SK-MEL-2 melanoma; above 100 µM with CAKI-1 renal; 59.9 µM in the assay with HOP-92 NSCLC; above 100 µM with NCI-H226 lung; above 100 µM in the assay on UACC-257 melanoma; above 100 µM in the assay with NCI-H23 lung. For the same molecule, the TGI with HOP-62 NSCLC is 60.9 µM; in the assay on OVCAR-8 ovarian, 63.5 µM; in the assay with SF-295 CNS, above 100 µM.
In the case of `COc1cc2c(c(OC)c1OC)-c1ccc(SC)c(=O)cc1[C@@H](NC(=O)c1ccc(C#N)cc1)CC2`, the TGI in the assay with SK-MEL-2 melanoma is 6.58 µM; in the assay on HOP-92 NSCLC, 10.6 µM; with NCI-H226 lung it was below 0.01 µM; in the assay with UACC-257 melanoma, above 100 µM; in the assay with NCI-H23 lung, below 0.01 µM; in the assay on HOP-62 NSCLC, 56.4 µM. Besides, the TGI is 12.9 µM with OVCAR-8 ovarian and below 0.01 µM in the assay with SF-295 CNS.
Regarding `Fc1nc(F)nc(-c2c3ccccc3c3n2CCS3)n1`, the TGI with SK-MEL-2 melanoma, in the assay on CAKI-1 renal, in the assay with HOP-92 NSCLC, in the assay on NCI-H226 lung, in the assay on NCI-H23 lung and in the assay with HOP-62 NSCLC was above 100 µM in each case. Moreover, the TGI with SF-295 CNS was above 100 µM.
`CCOC(=O)NNC(=O)NC12CC3CC(CC(C3)C1)C2`: the TGI in the assay with SK-MEL-2 melanoma, in the assay on CAKI-1 renal, in the assay on HOP-92 NSCLC, with NCI-H226 lung, in the assay with UACC-257 melanoma and with NCI-H23 lung was above 100 µM in each case. The TGI in the assay with HOP-62 NSCLC, in the assay on OVCAR-8 ovarian and with SF-295 CNS was above 100 µM each time.
In the case of `O=C1c2ccccc2C(=O)c2c1ccc1c3ccccc3n(Cc3ccccc3)c21`, the TGI in the assay with SK-MEL-2 melanoma was above 100 µM; in the assay with CAKI-1 renal, above 100 µM; in the assay with HOP-92 NSCLC, 94.2 µM; in the assay on NCI-H226 lung, above 100 µM; in the assay with HOP-62 NSCLC, above 100 µM; in the assay with OVCAR-8 ovarian, above 100 µM. This molecule also came in with a TGI in the assay with SF-295 CNS above 100 µM.

Source of the values: PubChem BioAssay (NCI).
